Laboratory results: article PMC6974524 (Frontiers in Microbiology, 2020)
Values after ≈ are worked out from the molar mass of the structure shown.

Assays:
Mtb-KD = format: cell-based, Mycobacterium tuberculosis
clinical Mtb strains = assay: microbe, parasite or virus in culture; format: cell-based, Mycobacterium tuberculosis; details: Mycobacterium tuberculosis; range over standard and clinical strains (abstract); read-out: MIC for the standard and clinical drug-resistant Mtb strains

Row | Compound | MIC, ddlA knocked-down (Mtb-KD) [µg/mL] | MIC, ddlA overexpressed (Mtb-KD) [µg/mL] | MIC (clinical Mtb strains) [µg/mL]
1 | N[C@@H]1CON=C1O [DCS, D-cycloserine, reference compound] | 1 (≈ 9.79 µM) | 32 (≈ 313 µM) | –
2 | OC1(c2ccc(OC(F)F)cc2)C[N+](c2ccccc2)=C2CCCCN21 (centres unmarked) [IMB-0283] | 0.25 | 2 | 0.25 to 4
